The values that follow come from PMC5896373 (Molecular Pharmacology, 2018).

The structures appear in SMILES notation.

Experiment [1] concerns the target T1, P2X7-2Nβ 73–79 deletion (Homo sapiens, UniProt Q99572, DEL73-79/I21V/M24R/N16P/N25R/Q22R/R20V/S23N/T19I/Y26L).
T1 construct: expressed in transfected cells; host or cells: Xenopus laevis oocytes (cRNA injection)
T1 sequence (Q99572 with tags, fused parts or gaps N16P/T19I/R20V/I21V/Q22R/S23N/M24R/N25R/Y26L/DEL73-79): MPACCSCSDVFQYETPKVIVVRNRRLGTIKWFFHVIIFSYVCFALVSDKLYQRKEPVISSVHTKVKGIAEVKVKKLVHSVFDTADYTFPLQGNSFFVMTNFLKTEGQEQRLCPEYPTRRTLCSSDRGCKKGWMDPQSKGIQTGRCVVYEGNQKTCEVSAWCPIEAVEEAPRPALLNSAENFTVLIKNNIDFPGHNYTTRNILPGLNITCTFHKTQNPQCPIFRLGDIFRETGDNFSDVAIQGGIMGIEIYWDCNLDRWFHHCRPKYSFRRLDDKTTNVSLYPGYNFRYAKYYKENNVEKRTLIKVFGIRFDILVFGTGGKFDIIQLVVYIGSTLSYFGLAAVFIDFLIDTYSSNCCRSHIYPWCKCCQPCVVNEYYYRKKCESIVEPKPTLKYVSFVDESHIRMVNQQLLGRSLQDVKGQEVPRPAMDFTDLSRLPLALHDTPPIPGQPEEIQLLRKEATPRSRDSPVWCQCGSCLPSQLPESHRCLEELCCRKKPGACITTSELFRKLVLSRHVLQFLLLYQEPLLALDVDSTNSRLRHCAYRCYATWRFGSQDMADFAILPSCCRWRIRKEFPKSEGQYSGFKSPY
The experiment in a line: Two-electrode voltage clamp of ATP-evoked currents in Xenopus oocytes. In kind it is cell-based. A general note: Two-electrode voltage clamp is typically applied to oocytes expressing channels or transporters.
Protocol: (§1) Additional point mutants were made using the QuikChange mutagenesis kit (Stratagene California, La Jolla, CA). The production of the correct mutations and absence of coding errors was determined by DNA sequencing (Automated ABI Sequencing Service, University of Leicester, UK). cRNA was generated for the mutants and 50 nl (50 ng) was injected into manually defoliculated stage V Xenopus laevis oocytes using an Inject+Matic microinjector (J.A. Gabay, Inject+Matic, Geneva, Switzerland). Injected oocytes were stored at 16°C in ND96 buffer [in millimolar concentrations, NaCl 96, KCl 2, CaCl2 1.8, MgCl2 1, sodium pyruvate 5, and HEPES 5 (pH 7.6) supplemented with 50 μg/ml gentamycin and 50 μg/ml tetracycline]. Three to seven days postinjection two-electrode voltage clamp recordings were made from oocytes bathed in divalent-free ND96 buffer (in millimolar concentrations, NaCl 96, KCl 2, sodium pyruvate 5, HEPES 5, and 0.1 flufenamic acid, pH 7.6). Oocytes were voltage clamped at a holding potential of −60 mV with a GeneClamp500B amplifier (Molecular Devices).
(§2) Inhibition by the antagonists was expressed as the percentage of the peak current amplitude of an EC90 concentration of ATP recorded before the application of antagonist (ATP gave reproducible responses to ATP in the absence of antagonist). Inhibition curves were fitted with the Hill equation (variable slope) using GraphPad Prism 6 (GraphPad Software, San Diego, CA). […] Individual concentration-response curves were generated for individual experiments, and statistical analysis was carried out on the data generated. […] Data are shown as mean ± S.E.M. In all cases n ≥ 3 for all data points.

The target of experiment [2] is T2, chimeric P2X7/1 receptor 112–118 (Homo sapiens, UniProt Q99572, E112P/E115T/G113K/I21V/L118Y/M24R/N16P/N25R/Q22R/R117G/R20V/S23N/T19I/Y26L).
T2 construct: expressed in transfected cells; host or cells: Xenopus laevis oocytes (cRNA injection)
The experiment in a line: cell-based. In kind it is cell-based.
Protocol: as §1, §2

The target in experiment [3] is T3, P2X7R mutant Insert G99 (Homo sapiens, UniProt Q99572, I21V/INS99D/M24R/N16P/N25R/Q22R/R20V/S23N/T19I/Y26L).
T3 construct: expressed in transfected cells; host or cells: Xenopus laevis oocytes (cRNA injection)
T3 sequence (Q99572 with tags, fused parts or gaps N16P/T19I/R20V/I21V/Q22R/S23N/M24R/N25R/Y26L/INS99D): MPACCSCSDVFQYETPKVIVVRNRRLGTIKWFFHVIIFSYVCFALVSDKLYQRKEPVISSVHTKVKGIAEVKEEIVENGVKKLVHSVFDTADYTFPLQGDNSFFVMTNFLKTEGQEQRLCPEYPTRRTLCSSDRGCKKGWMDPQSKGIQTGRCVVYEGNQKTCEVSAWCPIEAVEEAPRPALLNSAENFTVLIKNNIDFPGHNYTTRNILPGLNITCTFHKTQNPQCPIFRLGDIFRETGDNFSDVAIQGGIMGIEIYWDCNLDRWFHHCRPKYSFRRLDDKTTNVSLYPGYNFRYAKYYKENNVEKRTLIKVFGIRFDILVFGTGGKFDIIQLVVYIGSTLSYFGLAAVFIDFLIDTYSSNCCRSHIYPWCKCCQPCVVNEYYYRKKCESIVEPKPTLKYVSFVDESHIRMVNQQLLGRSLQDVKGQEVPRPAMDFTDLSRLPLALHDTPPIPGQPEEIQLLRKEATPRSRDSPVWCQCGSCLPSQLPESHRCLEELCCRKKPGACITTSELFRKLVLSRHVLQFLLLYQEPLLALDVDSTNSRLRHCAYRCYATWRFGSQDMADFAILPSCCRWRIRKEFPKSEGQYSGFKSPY
Put plainly: Two-electrode voltage clamp of ATP-evoked currents in Xenopus oocytes. The conditions noted are these: EC90 ATP, mean ± S.E.M. The format is cell-based.
Protocol: (§3) Injected oocytes were stored at 16°C in ND96 buffer [in millimolar concentrations, NaCl 96, KCl 2, CaCl2 1.8, MgCl2 1, sodium pyruvate 5, and HEPES 5 (pH 7.6) supplemented with 50 μg/ml gentamycin and 50 μg/ml tetracycline]. Three to seven days postinjection two-electrode voltage clamp recordings were made from oocytes bathed in divalent-free ND96 buffer (in millimolar concentrations, NaCl 96, KCl 2, sodium pyruvate 5, HEPES 5, and 0.1 flufenamic acid, pH 7.6). Oocytes were voltage clamped at a holding potential of −60 mV with a GeneClamp500B amplifier (Molecular Devices).
(§4) Inhibition by the antagonists was expressed as the percentage of the peak current amplitude of an EC90 concentration of ATP recorded before the application of antagonist (ATP gave reproducible responses to ATP in the absence of antagonist). Inhibition curves were fitted with the Hill equation (variable slope) using GraphPad Prism 6 (GraphPad Software, San Diego, CA). […] Individual concentration-response curves were generated for individual experiments, and statistical analysis was carried out on the data generated. When shown in figures, the inhibition curves are fitted to the mean normalized data. […] Data are shown as mean ± S.E.M. In all cases n ≥ 3 for all data points.

Experiment [4] has as its target T4, P2X7R point mutant F103A (Homo sapiens, UniProt Q99572, F103A/I21V/M24R/N16P/N25R/Q22R/R20V/S23N/T19I/Y26L).
T4 construct: expressed in transfected cells; host or cells: Xenopus laevis oocytes (cRNA injection)
Put plainly: cell-based.
Protocol: as §3, §4

For experiment [5], the target named is T5, P2X7R point mutant K110Y (Homo sapiens, UniProt Q99572, I21V/K110Y/M24R/N16P/N25R/Q22R/R20V/S23N/T19I/Y26L).
T5 construct: expressed in transfected cells; host or cells: Xenopus laevis oocytes (cRNA injection)
T5 sequence (Q99572 1-595 N16P/T19I/R20V/I21V/Q22R/S23N/M24R/N25R/Y26L/K110Y): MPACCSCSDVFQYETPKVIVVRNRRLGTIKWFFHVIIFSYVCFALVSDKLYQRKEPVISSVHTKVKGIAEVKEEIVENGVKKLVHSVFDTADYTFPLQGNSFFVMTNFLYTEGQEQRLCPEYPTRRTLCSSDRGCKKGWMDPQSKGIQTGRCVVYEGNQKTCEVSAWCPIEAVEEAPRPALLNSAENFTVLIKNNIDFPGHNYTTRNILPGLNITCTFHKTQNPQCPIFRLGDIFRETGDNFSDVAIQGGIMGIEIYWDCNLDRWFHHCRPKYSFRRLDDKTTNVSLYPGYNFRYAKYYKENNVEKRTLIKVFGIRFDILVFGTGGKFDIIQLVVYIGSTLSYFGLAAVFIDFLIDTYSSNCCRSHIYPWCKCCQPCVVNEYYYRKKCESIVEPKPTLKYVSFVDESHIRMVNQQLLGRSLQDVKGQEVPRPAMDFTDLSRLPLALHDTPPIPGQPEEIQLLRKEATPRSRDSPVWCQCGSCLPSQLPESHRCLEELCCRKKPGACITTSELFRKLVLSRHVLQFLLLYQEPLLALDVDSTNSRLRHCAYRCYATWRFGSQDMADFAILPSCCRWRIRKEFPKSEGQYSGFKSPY
Put plainly: Two-electrode voltage clamp of ATP-evoked currents in Xenopus oocytes. The format is cell-based.
Protocol: as §1, §2

For experiment [6], the target named is T6, P2X7R point mutant S165F (Homo sapiens, UniProt Q99572, I21V/M24R/N16P/N25R/Q22R/R20V/S165F/S23N/T19I/Y26L).
T6 construct: expressed in transfected cells; host or cells: Xenopus laevis oocytes (cRNA injection)
Described as above. The format is cell-based. The conditions noted are these: EC90 ATP, mean ± S.E.M.
Protocol: as §3, §4

For experiment [7], the target named is T7, P2X7R point mutant V304C (Homo sapiens, UniProt Q99572, I21V/M24R/N16P/N25R/Q22R/R20V/S23N/T19I/V304C/Y26L).
T7 construct: expressed in transfected cells; host or cells: Xenopus laevis oocytes (cRNA injection)
Described as above. The conditions noted are these: EC90 ATP, mean ± S.E.M. In kind it is cell-based.
Protocol: as §3, §2

The target of experiment [8] is T8, P2X7R point mutant F88W (Homo sapiens, UniProt Q99572, F88W/I21V/M24R/N16P/N25R/Q22R/R20V/S23N/T19I/Y26L).
T8 construct: expressed in transfected cells; host or cells: Xenopus laevis oocytes (cRNA injection)
Described as above. In kind it is cell-based. The conditions noted are these: EC90 ATP, mean ± S.E.M.
Protocol: as §1
(§5) Inhibition by the antagonists was expressed as the percentage of the peak current amplitude of an EC90 concentration of ATP recorded before the application of antagonist (ATP gave reproducible responses to ATP in the absence of antagonist). […]

In experiment [9] the target is T9, P2X7R point mutant Y299C (Homo sapiens, UniProt Q99572, I21V/M24R/N16P/N25R/Q22R/R20V/S23N/T19I/Y26L/Y299C).
T9 construct: expressed in transfected cells; host or cells: Xenopus laevis oocytes (cRNA injection)
The description is as above. The format is cell-based. The conditions noted are these: EC90 ATP, mean ± S.E.M.
Protocol: as §1, §5

In experiment [10] the target is T10, P2X7R point mutant D92A (Homo sapiens, UniProt Q99572, D92A/I21V/M24R/N16P/N25R/Q22R/R20V/S23N/T19I/Y26L).
T10 construct: expressed in transfected cells; host or cells: Xenopus laevis oocytes (cRNA injection)
Described as above. The conditions noted are these: EC90 ATP, mean ± S.E.M. The format is cell-based.
Protocol: as §3, §2

Experiment [11] has as its target T11, P2X7R point mutant V312A (Homo sapiens, UniProt Q99572, I21V/M24R/N16P/N25R/Q22R/R20V/S23N/T19I/V312A/Y26L).
T11 construct: expressed in transfected cells; host or cells: Xenopus laevis oocytes (cRNA injection)
Put plainly: cell-based.
Protocol: as §3, §2

T10 sequence (Q99572 whole entry N16P/T19I/R20V/I21V/Q22R/S23N/M24R/N25R/Y26L/D92A): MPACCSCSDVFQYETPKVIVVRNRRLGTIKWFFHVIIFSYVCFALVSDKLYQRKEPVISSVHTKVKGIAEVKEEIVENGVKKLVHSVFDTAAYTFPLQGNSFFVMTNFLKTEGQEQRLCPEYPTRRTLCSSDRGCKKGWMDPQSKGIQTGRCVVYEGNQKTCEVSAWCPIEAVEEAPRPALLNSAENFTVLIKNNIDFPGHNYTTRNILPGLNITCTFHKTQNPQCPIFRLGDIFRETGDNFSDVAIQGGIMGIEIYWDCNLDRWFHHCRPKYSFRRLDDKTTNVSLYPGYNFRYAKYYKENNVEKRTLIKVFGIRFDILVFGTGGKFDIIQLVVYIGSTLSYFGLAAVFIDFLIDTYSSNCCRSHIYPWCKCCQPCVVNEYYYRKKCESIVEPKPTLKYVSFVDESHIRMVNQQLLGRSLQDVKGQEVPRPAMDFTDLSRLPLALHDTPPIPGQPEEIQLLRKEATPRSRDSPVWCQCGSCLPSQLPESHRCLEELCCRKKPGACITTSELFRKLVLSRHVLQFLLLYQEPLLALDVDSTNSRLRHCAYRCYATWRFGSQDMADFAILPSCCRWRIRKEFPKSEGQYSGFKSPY
T4 sequence (Q99572 whole entry N16P/T19I/R20V/I21V/Q22R/S23N/M24R/N25R/Y26L/F103A): as the sequence (Q99572 whole entry N16P/T19I/R20V/I21V/Q22R/S23N/M24R/N25R/Y26L/D92A) above, with A92D, F103A counted along it
T6 sequence (Q99572 whole entry N16P/T19I/R20V/I21V/Q22R/S23N/M24R/N25R/Y26L/S165F): as the sequence (Q99572 whole entry N16P/T19I/R20V/I21V/Q22R/S23N/M24R/N25R/Y26L/D92A) above, with A92D, S165F counted along it
T8 sequence (Q99572 whole entry N16P/T19I/R20V/I21V/Q22R/S23N/M24R/N25R/Y26L/F88W): as the sequence (Q99572 whole entry N16P/T19I/R20V/I21V/Q22R/S23N/M24R/N25R/Y26L/D92A) above, with F88W, A92D counted along it
T7 sequence (Q99572 whole entry N16P/T19I/R20V/I21V/Q22R/S23N/M24R/N25R/Y26L/V304C): as the sequence (Q99572 whole entry N16P/T19I/R20V/I21V/Q22R/S23N/M24R/N25R/Y26L/D92A) above, with A92D, V304C counted along it
T2 sequence (Q99572 whole entry N16P/T19I/R20V/I21V/Q22R/S23N/M24R/N25R/Y26L/E112P/G113K/E115T/R117G/L118Y): as the sequence (Q99572 whole entry N16P/T19I/R20V/I21V/Q22R/S23N/M24R/N25R/Y26L/D92A) above, with A92D, E112P, G113K, E115T, R117G, L118Y counted along it
T9 sequence (Q99572 whole entry N16P/T19I/R20V/I21V/Q22R/S23N/M24R/N25R/Y26L/Y299C): as the sequence (Q99572 whole entry N16P/T19I/R20V/I21V/Q22R/S23N/M24R/N25R/Y26L/D92A) above, with A92D, Y299C counted along it
T11 sequence (Q99572 whole entry N16P/T19I/R20V/I21V/Q22R/S23N/M24R/N25R/Y26L/V312A): as the sequence (Q99572 whole entry N16P/T19I/R20V/I21V/Q22R/S23N/M24R/N25R/Y26L/D92A) above, with A92D, V312A counted along it

Consider `Cl.Clc1cccc(-c2nnnn2Cc2cccnc2)c1Cl.O` [A438079, 3-(5-(2,3-dichlorophenyl)-1H-tetrazol-1-yl)methyl pyridine hydrochloride hydrate], for which the IC50 (in general, the point on the concentration scale where inhibition reaches its midpoint) in experiment [1] is 200 nM; in experiment [2] it was 3160 nM; in [3], 12600 nM; in experiment [4], greater than 100000 nM; in experiment [5], 794 nM; in experiment [6], 7940 nM. Also, the IC50 in [7] was 63.1 nM; in experiment [8] it was 3160 nM; in experiment [9], 251 nM; in [10], greater than 100000 nM; in experiment [11], 5010 nM.

Take `COc1ccc(CC(=O)NC(N=C(NC#N)Nc2cccc3ncccc23)C(C)(C)C)cc1OC` (stereo not drawn) [A740003, N-[1-[[(cyanoamino)(5-quinolinylamino)methylene]amino]-2,2-dimethylpropyl]-3,4-dimethoxybenzeneacetamide]: the IC50 in experiment [1] is 79.4 nM; in experiment [2] it was 251 nM; in experiment [3], 1580 nM; in [4], 631 nM; in [5], 100 nM; in experiment [6], 200 nM. The IC50 was 100 nM in experiment [7]; 158 nM in experiment [8]; 100 nM in [9]; 7940 nM in experiment [10]; 398 nM in experiment [11]. In addition, the “effect on antagonist sensitivity relative to P2X7-2Nβ” value was “unaffected” in [1] (73–79 deletion) and “no effect” in experiment [5] (K110Y).
